Source: patent US10457654B2 (GENENTECH, INC., priority 2017, dated 2019)
Structures can show the parent of a compound that is named as a salt.

Assays:
hNav1.7 [1] = biological target: T1, hNav1.7 (Homo sapiens (Human), UniProt Q15858); test: Tritiated compound binding to membranes from cells expressing hNav1.7 and the β1 subunit, modified protocol (LBA, Ex. 243B); conditions: 300 pM [3H]compound, room temperature, read-out: Nav1.7 LBA (Ex. 243B) IC50
Target sequence in this assay (Q15858 whole entry, looked up): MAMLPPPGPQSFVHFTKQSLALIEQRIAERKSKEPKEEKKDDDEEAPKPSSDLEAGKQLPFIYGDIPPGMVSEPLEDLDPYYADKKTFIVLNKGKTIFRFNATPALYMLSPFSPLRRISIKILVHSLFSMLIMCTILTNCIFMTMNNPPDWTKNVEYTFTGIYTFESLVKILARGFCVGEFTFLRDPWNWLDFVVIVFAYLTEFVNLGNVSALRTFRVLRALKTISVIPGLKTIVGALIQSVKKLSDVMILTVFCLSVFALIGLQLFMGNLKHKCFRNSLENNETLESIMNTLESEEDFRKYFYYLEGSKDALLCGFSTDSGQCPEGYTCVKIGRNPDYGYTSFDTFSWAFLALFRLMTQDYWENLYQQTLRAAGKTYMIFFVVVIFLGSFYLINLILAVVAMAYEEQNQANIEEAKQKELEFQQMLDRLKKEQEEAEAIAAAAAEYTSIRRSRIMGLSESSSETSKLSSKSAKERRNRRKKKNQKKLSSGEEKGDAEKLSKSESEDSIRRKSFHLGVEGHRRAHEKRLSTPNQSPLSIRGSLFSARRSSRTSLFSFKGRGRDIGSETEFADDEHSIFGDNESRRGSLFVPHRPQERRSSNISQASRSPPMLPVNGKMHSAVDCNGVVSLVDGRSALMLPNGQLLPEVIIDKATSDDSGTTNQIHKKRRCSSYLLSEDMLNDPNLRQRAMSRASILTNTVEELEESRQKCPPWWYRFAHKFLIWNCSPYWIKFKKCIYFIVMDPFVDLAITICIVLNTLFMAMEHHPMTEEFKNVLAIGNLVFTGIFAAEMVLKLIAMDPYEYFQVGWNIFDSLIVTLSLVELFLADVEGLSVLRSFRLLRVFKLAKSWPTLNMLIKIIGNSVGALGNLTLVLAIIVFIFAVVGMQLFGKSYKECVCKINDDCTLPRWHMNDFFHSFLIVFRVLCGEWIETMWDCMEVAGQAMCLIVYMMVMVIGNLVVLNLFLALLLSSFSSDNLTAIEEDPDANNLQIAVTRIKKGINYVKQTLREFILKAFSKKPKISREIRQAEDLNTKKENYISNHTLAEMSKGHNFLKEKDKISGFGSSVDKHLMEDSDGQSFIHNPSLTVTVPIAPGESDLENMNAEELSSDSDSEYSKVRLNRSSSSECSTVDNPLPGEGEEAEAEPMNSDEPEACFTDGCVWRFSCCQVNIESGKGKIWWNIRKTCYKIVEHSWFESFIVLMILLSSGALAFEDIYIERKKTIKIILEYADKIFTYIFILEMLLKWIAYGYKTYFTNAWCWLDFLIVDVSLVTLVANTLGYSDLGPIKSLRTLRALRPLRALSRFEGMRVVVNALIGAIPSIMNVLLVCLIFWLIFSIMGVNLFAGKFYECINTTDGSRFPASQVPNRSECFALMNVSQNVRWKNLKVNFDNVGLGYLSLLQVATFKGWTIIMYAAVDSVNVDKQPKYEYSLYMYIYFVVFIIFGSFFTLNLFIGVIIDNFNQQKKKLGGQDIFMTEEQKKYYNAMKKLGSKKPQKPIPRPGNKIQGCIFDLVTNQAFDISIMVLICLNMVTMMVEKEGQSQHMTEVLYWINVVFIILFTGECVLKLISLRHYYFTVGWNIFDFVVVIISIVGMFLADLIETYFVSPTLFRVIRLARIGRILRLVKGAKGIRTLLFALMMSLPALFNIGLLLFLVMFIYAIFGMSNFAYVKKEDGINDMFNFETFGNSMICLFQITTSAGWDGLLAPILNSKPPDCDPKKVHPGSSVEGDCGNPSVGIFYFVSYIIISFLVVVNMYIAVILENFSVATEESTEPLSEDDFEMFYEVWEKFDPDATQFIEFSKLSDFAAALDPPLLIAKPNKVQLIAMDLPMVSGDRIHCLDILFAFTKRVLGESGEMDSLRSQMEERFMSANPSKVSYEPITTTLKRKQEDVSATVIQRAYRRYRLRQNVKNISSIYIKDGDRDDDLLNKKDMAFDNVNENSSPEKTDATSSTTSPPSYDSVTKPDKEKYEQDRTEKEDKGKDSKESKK
Target sequence in this assay (Q07699 whole entry partner, looked up): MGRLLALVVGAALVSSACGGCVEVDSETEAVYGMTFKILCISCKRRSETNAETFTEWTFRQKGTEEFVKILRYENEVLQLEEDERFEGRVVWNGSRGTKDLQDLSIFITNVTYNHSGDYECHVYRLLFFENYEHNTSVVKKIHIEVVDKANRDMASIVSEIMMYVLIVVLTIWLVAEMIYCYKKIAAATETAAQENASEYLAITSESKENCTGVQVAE

hNav1.7 [2] = biological target: T1, hNav1.7; test: Patch voltage clamp electrophysiology assay (EP), Syncropatch 384PE, CHO cells expressing Nav1.7; assay type: cell-based; conditions: read-out: EP_SP hNav1.7 (Ex. 243B) IC50
Procedure: Electrophysiological Assay (EP) (In Vitro Assay)
The following voltage clamp electrophysiology studies were performed on representative compounds using cells heterologously expressing Nav1.7 or Nav1.5 channels. cDNAs for Nav1.7 (NM_002977) and Nav1.5 (AC137587) were stably expressed in Chinese Hamstr Ovary (CHO) cells and CHL (Chinese Hamster Lung) cells respectively. […] Internal solution consists of (in mM): 110 […], 10 […], 20 EGTA, and 10 Hepes (pH adjusted to 7.2); and external solution contains (in mM): 60 NMDG, 80 NaCl, 4 KCl, 1 MgCl2, 2 CaCl2, 2 D-Glucose monohydrate, 10 Hepes (pH adjusted to 7.4 with NaOH).
The chip is moved into the measuring head and the instrument primes the chip with external and internal solutions. […] cells are added to the chip from a cell hotel, and a negative pressure of −50 mBar is applied to form a seal. Following treatment with seal enhancer solution and wash-off with external solution, negative pressure of −250 mbar is applied for 1 second to achieve the whole-cell configuration, followed by three washing steps in external solution. 20 μl of compounds is added to 40 μl in each well (1:3 dilution of compounds), and after mixing, 20 μl is removed so the volume is retained at 40 μl.
For voltage protocol, an holding potential of −50 mV is applied during the whole experiment. A depolarizing step is applied to −10 mV for 10 ms, followed by a hyperpolarization step to −150 mV for 20 ms to allow channel recovery from inactivation. A second depolarizing step is applied from −150 mV to −10 mV for 10 ms, where currents were measured to derive blocking effects of compounds. Inhibition is determined based on 7.5 min of compound incubation.
Target sequence in this assay (Q15858 other isoform, or with tags, fused parts or gaps): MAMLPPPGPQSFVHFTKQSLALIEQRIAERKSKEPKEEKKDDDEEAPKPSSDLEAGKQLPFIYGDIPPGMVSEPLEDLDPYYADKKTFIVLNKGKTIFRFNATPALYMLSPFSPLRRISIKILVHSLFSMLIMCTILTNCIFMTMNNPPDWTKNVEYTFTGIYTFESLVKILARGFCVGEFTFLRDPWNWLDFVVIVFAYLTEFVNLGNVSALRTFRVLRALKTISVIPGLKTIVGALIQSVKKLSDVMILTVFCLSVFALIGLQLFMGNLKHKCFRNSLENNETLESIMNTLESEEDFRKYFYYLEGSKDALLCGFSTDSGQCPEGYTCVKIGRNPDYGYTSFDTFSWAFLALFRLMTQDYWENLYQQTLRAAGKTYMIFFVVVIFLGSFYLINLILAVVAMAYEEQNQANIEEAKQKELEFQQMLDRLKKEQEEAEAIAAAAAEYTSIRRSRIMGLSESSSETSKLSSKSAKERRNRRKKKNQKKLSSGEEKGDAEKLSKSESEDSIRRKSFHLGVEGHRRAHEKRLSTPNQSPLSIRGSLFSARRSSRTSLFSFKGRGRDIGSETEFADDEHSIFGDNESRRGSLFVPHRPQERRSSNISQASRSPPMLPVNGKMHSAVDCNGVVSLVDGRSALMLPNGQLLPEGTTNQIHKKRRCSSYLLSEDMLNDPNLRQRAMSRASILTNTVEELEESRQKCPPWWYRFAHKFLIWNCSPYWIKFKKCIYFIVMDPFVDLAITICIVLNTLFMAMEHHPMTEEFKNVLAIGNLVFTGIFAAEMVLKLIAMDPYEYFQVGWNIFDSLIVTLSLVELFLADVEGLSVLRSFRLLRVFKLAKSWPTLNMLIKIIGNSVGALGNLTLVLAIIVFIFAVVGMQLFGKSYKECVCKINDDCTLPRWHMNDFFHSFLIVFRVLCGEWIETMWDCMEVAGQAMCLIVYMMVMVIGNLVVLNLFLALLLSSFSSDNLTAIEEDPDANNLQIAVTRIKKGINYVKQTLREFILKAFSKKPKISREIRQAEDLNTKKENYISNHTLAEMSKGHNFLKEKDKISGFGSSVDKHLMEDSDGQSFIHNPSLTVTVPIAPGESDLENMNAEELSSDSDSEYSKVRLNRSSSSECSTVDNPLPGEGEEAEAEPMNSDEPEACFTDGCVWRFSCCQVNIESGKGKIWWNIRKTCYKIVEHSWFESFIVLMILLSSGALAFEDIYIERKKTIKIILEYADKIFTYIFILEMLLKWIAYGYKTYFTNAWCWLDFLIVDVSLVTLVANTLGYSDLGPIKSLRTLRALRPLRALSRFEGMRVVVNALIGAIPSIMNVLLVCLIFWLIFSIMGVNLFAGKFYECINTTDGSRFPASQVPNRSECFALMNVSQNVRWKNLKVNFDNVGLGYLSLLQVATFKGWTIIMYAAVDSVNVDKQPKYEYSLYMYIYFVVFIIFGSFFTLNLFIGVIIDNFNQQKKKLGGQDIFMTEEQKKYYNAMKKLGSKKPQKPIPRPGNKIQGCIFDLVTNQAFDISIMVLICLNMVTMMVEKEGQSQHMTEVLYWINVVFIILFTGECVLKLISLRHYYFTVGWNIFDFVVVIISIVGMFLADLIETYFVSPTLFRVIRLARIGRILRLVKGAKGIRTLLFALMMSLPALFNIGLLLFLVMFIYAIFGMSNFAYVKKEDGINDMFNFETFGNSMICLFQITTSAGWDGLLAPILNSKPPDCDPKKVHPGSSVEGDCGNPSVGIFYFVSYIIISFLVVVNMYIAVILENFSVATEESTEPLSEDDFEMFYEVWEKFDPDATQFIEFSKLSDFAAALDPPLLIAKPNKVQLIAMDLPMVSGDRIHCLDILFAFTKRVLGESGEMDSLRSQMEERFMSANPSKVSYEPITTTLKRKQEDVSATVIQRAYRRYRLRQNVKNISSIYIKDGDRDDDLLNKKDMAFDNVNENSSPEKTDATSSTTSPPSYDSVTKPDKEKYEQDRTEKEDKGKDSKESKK

[3] = holding potential -50 mV, […] compound incubation

SMILES | IC50 (hNav1.7 [1]) [nM] | IC50 (hNav1.7 [2]; [3]) [nM] | IC50 (hNav1.7 [2]) [nM]
CN(C[C@H](O)C1CC1)[C@H]1CCCC[C@@H]1Nc1cc(F)c(S(=O)(=O)Nc2nccs2)cc1Cl [Example 143, 5-Chloro-4-(((1S,2S)-2-(((R)-2-cyclopropyl-2-hydroxyethyl)(methyl)amino)cyclohexyl)amino)-2-fluoro-N-(thiazol-2-yl)benzenesulfonamide] | 418 | 19.3 | –
CN(C)[C@H]1CCCCC[C@@H]1Nc1cc(F)c(S(=O)(=O)Nc2nccs2)cc1Cl [Example 144, 5-chloro-4-(((1S,2S)-2-(dimethylamino)cycloheptyl)amino)-2-fluoro-N-(thiazol-2-yl)benzenesulfonamide formate] | 374 | 25.8 | –
CN(C)[C@@H]1CCCCC[C@H]1Nc1cc(F)c(S(=O)(=O)Nc2nccs2)cc1Cl [Example 145, 5-chloro-4-(((1R,2R)-2-(dimethylamino)cycloheptyl)amino)-2-fluoro-N-(thiazol-2-yl)benzenesulfonamide formate] | 2000 | 395 | –
CC(C)C(=O)N1CC(N(C)[C@H]2CCCC[C@@H]2Nc2cc(F)c(S(=O)(=O)Nc3nccs3)cc2Cl)C1 [Example 146, 5-Chloro-2-fluoro-4-(((1S,2S)-2-((1-isobutyrylazetidin-3-yl)(methyl)amino)cyclohexyl)amino)-N-(thiazol-2-yl)benzenesulfonamide] | 154 | 15.4 | –
CC(C)CC(=O)N1CC(N(C)[C@H]2CCCC[C@@H]2Nc2cc(F)c(S(=O)(=O)Nc3nccs3)cc2Cl)C1 [Example 147, 5-Chloro-2-fluoro-4-(((1S,2S)-2-(methyl(1-(3-methylbutanoyl)azetidin-3-yl)amino)cyclohexyl)amino)-N-(thiazol-2-yl)benzenesulfonamide] | 275 | 27.2 | –
CC(=O)N1CC(N(C)[C@H]2CCCC[C@@H]2Nc2cc(F)c(S(=O)(=O)Nc3nccs3)cc2Cl)C1 [Example 148, 4-(((1S,2S)-2-((1-Acetylazetidin-3-yl)(methyl)amino)cyclohexyl)amino)-5-chloro-2-fluoro-N-(thiazol-2-yl)benzenesulfonamide] | 305 | 25.3 | –
N#CC1CCN([C@H]2CCCC[C@@H]2Nc2cc(F)c(S(=O)(=O)Nc3nccs3)cc2Cl)CC1 [Example 149, 5-Chloro-4-(((1S,2S)-2-(4-cyanopiperidin-1-yl)cyclohexyl)amino)-2-fluoro-N-(thiazol-2-yl)benzenesulfonamide formate] | 520 | 12.5 | –
CC1(O)CCN([C@H]2CCCC[C@@H]2Nc2cc(F)c(S(=O)(=O)Nc3nccs3)cc2Cl)CC1 [Example 150, 5-chloro-2-fluoro-4-(((1S,2S)-2-(4-hydroxy-4-methylpiperidin-1-yl)cyclohexyl)amino)-N-(thiazol-2-yl)benzenesulfonamide formate] | 1410 | 103 | –
O=S(=O)(Nc1ccncn1)c1cc(Cl)c(N[C@H]2CCCC[C@@H]2N2CC3CC3C2)cc1F (stereo partly drawn) [Example 151, 4-(((1S,2S)-2-(3-azabicyclo[3.1.0]hexan-3-yl)cyclohexyl)amino)-5-chloro-2-fluoro-N-(pyrimidin-4-yl)benzenesulfonamide] | 181 | 20.1 | –
O=S(=O)(Nc1ccncn1)c1cc(Cl)c(N[C@@H]2CCCC[C@H]2N2CC3CC3C2)cc1F (stereo partly drawn) [Example 152, 4-(((1R,2R)-2-(3-azabicyclo[3.1.0]hexan-3-yl)cyclohexyl)amino)-5-chloro-2-fluoro-N-(pyrimidin-4-yl)benzenesulfonamide] | 2000 | 1680 | –
O=S(=O)(Nc1nccs1)c1cc(Cl)c(N[C@H]2CCCC[C@@H]2N2CCC[C@H](O)C2)cc1F [Example 153, 5-chloro-2-fluoro-4-(((1S,2S)-2-((S)-3-hydroxypiperidin-1-yl)cyclohexyl)amino)-N-(thiazol-2-yl)benzenesulfonamide] | 17.1 | 4.07 | –
O=S(=O)(Nc1nccs1)c1cc(Cl)c(N[C@H]2CCCC[C@@H]2N2CCC3(CC2)CC3)cc1F [Example 154, 4-(((1S,2S)-2-(6-Azaspiro[2.5]octan-6-yl)cyclohexyl)amino)-5-chloro-2-fluoro-N-(thiazol-2-yl)benzenesulfonamide formate] | 1200 | 101 | –
CN(C1CN(C(=O)C2CC2)C1)[C@H]1CCCC[C@@H]1Nc1cc(F)c(S(=O)(=O)Nc2nccs2)cc1Cl [Example 155, 5-Chloro-4-(((1S,2S)-2-((1-(cyclopropanecarbonyl)azetidin-3-yl)(methyl)amino)-cyclohexyl)amino)-2-fluoro-N-(thiazol-2-yl)benzenesulfonamide] | 130 | 12.3 | –
CN([C@H]1C[C@@H](O)C1)[C@H]1CCCC[C@@H]1Nc1cc(F)c(S(=O)(=O)Nc2nccs2)cc1Cl [Example 156, 5-Chloro-2-fluoro-4-(((1S,2S)-2-((cis-3-hydroxycyclobutyl)(methyl)amino)cyclohexyl)amino)-N-(thiazol-2-yl)benzenesulfonamide formate] | 316 | 18.9 | –
CN([C@H]1C[C@H](O)C1)[C@H]1CCCC[C@@H]1Nc1cc(F)c(S(=O)(=O)Nc2nccs2)cc1Cl [Example 157, 5-Chloro-2-fluoro-4-(((1S,2S)-2-((trans-3-hydroxycyclobutyl)(methyl)amino)cyclohexyl)amino)-N-(thiazol-2-yl)benzenesulfonamide formate] | 337 | 24.1 | –
CN(CCO)[C@H]1C[C@@H](C(F)(F)F)CC[C@@H]1Nc1cc(F)c(S(=O)(=O)Nc2cccc(F)n2)cc1Cl [Example 158, 5-chloro-2-fluoro-N-(6-fluoropyridin-2-yl)-4-(((1S,2S,4S)-2-((2-hydroxyethyl)(methyl)amino)-4-(trifluoromethyl)cyclohexyl)amino)benzenesulfonamide formate] | 5.96 | 2.71 | –
O=S(=O)(Nc1nccs1)c1cc(Cl)c(N[C@@H]2CCCC[C@H]2N2CC3CC3C2)cc1F (stereo partly drawn) [Example 159, 4-(((1R,2R)-2-(3-azabicyclo[3.1.0]hexan-3-yl)cyclohexyl)amino)-5-chloro-2-fluoro-N-(thiazol-2-yl)benzenesulfonamide] | 1790 | – | 202
O=S(=O)(Nc1nccs1)c1cc(Cl)c(N[C@H]2CCCC[C@@H]2N2CC3CC3C2)cc1F (stereo partly drawn) [Example 160, 4-(((1S,2S)-2-(3-azabicyclo[3.1.0]hexan-3-yl)cyclohexyl)amino)-5-chloro-2-fluoro-N-(thiazol-2-yl)benzenesulfonamide] | 20.3 | – | 2.27
N#C[C@@H]1CCN([C@H]2CCCC[C@@H]2Nc2cc(F)c(S(=O)(=O)Nc3nccs3)cc2Cl)C1 [Example 161, 5-Chloro-4-(((1S,2S)-2-((R)-3-cyanopyrrolidin-1-yl)cyclohexyl)amino)-2-fluoro-N-(thiazol-2-yl)benzenesulfonamide formate] | 187 | 3.03 | –
N#C[C@H]1CCN([C@H]2CCCC[C@@H]2Nc2cc(F)c(S(=O)(=O)Nc3nccs3)cc2Cl)C1 [Example 162, 5-Chloro-4-(((1S,2S)-2-((S)-3-cyanopyrrolidin-1-yl)cyclohexyl)amino)-2-fluoro-N-(thiazol-2-yl)benzenesulfonamide formate] | 248 | 8.55 | –
CN1CCN([C@H]2CCCC[C@@H]2Nc2cc(F)c(S(=O)(=O)Nc3nccs3)cc2Cl)CC1 [Example 163, 5-Chloro-2-fluoro-4-(((1S,2S)-2-(4-methylpiperazin-1-yl)cyclohexyl)amino)-N-(thiazol-2-yl)benzenesulfonamide] | 201 | 18.1 | –
CN(C)[C@@H]1Cc2ccccc2C[C@H]1Nc1cc(F)c(S(=O)(=O)Nc2nccs2)cc1Cl [Example 164, 5-Chloro-4-(((2R,3R)-3-(dimethylamino)-1,2,3,4-tetrahydronaphthalen-2-yl)amino)-2-fluoro-N-(thiazol-2-yl)benzenesulfonamide] | 53.4 | 7.43 | –
CN(C)[C@H]1Cc2ccccc2C[C@@H]1Nc1cc(F)c(S(=O)(=O)Nc2nccs2)cc1Cl [Example 165, 5-Chloro-4-(((2S,3S)-3-(dimethylamino)-1,2,3,4-tetrahydronaphthalen-2-yl)amino)-2-fluoro-N-(thiazol-2-yl)benzenesulfonamide] | 2000 | 511 | –
CC(=O)N(C)[C@H]1CCCC[C@@H]1Nc1cc(F)c(S(=O)(=O)Nc2nccs2)cc1Cl [Example 166, N-((1S,2S)-2-((2-Chloro-5-fluoro-4-(N-(thiazol-2-yl)sulfamoyl)phenyl)amino)cyclohexyl)-N-methylacetamide] | 341 | 13.9 | –
